Assay results taken from US20250186463A1, “ABIRATERONE DECANOATE PRODRUGS AND USE IN THERAPY” (PROPELLA THERAPEUTICS, INC., priority 2022, published 2025).

How the values were obtained:
[1] = test system: mineralocorticoids, progesterone and pregnenolone; settings: cited from earlier work
[2] = IM injection of abiraterone acetate formulations in rats; assay type: in vivo; settings: vegetable oil solution versus aqueous suspension
Experimental: Typically, the abiraterone prodrugs of the present disclosure are formulated as a non-aqueous solution or suspension. In some embodiments, the non-aqueous solution or suspension provides higher levels of abiraterone in the plasma for a longer duration, when compared to an aqueous solution or suspension. For example, as detailed herein, IM injections of an aqueous suspension and a vegetable oil solution of the abiraterone acetate prodrug were evaluated in rats. […] Accordingly, in some embodiments, the abiraterone prodrug formulations herein can include an abiraterone prodrug of the present disclosure (e.g., compound of Formula I or II) dissolved or dispersed in a pharmaceutically acceptable carrier. In some embodiments, the pharmaceutically acceptable carrier can be any suitable nonaqueous vehicle suitable for injection, such as those described in U.S. Pharmacopeia. In some embodiments, the pharmaceutically acceptable carrier can be a pharmaceutically acceptable oil, e.g., a vegetable oil, castor oil, corn oil, sesame oil, cottonseed oil, peanut oil, poppy seed oil, tea seed oil, or soybean oil. In some embodiments, the pharmaceutically acceptable oil can be oils (e.g., described herein), suitable for use as vehicles for injection, e.g., meeting the criteria as described in the corresponding U.S. Pharmacopeia monograph. […]

Structure (SMILES): CC(=O)O[C@H]1CC[C@@]2(C)C(=CC[C@@H]3[C@@H]2CC[C@]2(C)C(c4cccnc4)=CC[C@@H]32)C1 [abiraterone acetate, (3)-17-(3-Pyridyl)androsta-5, acetate]
- increases in concentrations of mineralocorticoids ([1]; oral administration): 80 fold
- men with signs and symptoms of mineralocorticoid excess (hypertension, hypokalemia, edema) ([1]; oral administration): 30%
- increases in progesterone and pregnenolone ([1]; oral regimen): 40 fold
- blood plasma levels and duration of exposure of abiraterone [2]: highest blood plasma levels and the longest duration of exposure
